22 compounds from US8076486B2, “Heteroaryl-substituted arylaminopyridine derivatives as MEK inhibitors” (Merck Serono S.A., priority 2006, dated 2011) can be followed below.

For one experiment, the target named is human MEK1 (Homo sapiens, UniProt Q02750, S218E/S222E). Nature of the experiment: MEK-1 Enzyme Assay (LANCE-HTRF). Format: biochemical. As to conditions: MEK-1 EE, ERK-2K52A substrate, 9 uM ATP, 1.5 hrs. On the procedure:
Assay 1: MEK-1 Enzyme Assay (LANCE-HTRF)
Inhibition of human MEK1 kinase activity was monitored with a homogenous, fluorescence-based assay. The assay uses time resolved fluorescence resonance energy transfer to probe for phosphorylation of ERK1 by MEK1. The detailed procedure is described in the following:
Constititutively active MEK-1 EE (150 ng/well) and ERK-2K52A (110 ng/well) were incubated in black, 384 well Optiplates (Perkin Elmer) for 1.5 hrs at room temperature, in the presence of increasing concentrations of inhibitors. The total reaction volume was 50 ul. The inhibitors were serial diluted in kinase buffer (9 uM ATP, 50 mM Tris-Hcl pH 8.0, 10 mM MgCl2, 1 mM DTT and 100 uM Na3VO4), to a final concentration of 1% DMSO. At the end of the incubation, the enzyme reaction was quenched by adding 50 ul of assay buffer containing 50 mM Tris-Hcl, 50 mM EDTA, 0.1% BSA and a mixture of 1.25 ug/mL europium labeled anti-phosphotyrosine mAb (Perkin Elmer) and 5 ug/mL of allophycocyanin labeled anti-GST antibody (CIS-US). Plates were agitated on a plate shaker for 30 minutes and the phosphorylation of the ERK-2K52A substrate was measured by homogeneous time resolved fluorescence (HTRF) at 340 nm excitation and […] emission filters on the VICTOR V fluorescence plate reader. Phosphorylation is expressed as a ratio of 665 nM signal×10,000/615 nM signal. To assess the inhibitory potential of the compounds, IC50-values were determined.

The subject of experiment [1] is human pancreatic MiaPaCa-2 cells. Description: Tumor Cell Proliferation Assay (ATP Lite), MiaPaCa-2. Format: cell-based. Particulars: MIA PaCa-2, 96 h, 4 days, ATPlite, read-out: MiaPaCa2 cell proliferation IC50. On the procedure:
(§1) Assay 2: Tumor Cell Proliferation Assays (ATP Lite)
(§2) Murine colon C26 (1500 cells/well), human melanoma A375 (2000 cells/well), or human pancreatic MiaPaCa-2 cells (2000 cells/well) were plated in white, 96 well plates (Corning) in growth media (DMEM with 10% fetal bovine serum, 2 mM glutamine for C26 and MiaPaCa-2, and RPMI with 10% fetal bovine serum, 2 mM glutamine for A375) and cultured overnight at 37° C. in a humidified, 5% CO2 incubator. Inhibitors were serially diluted in 100% DMSO and subsequently added to the cells, in growth media, to reach a final concentration of 0.25% DMSO. The cells were incubated for 4 days in the presence of the test compounds and the proliferation was quantitated using the ATPlite cell proliferation kit (Packard).
A general note: ATP-based viability assays read luminescence as a measure of living cells.

The subject of experiment [2] is human melanoma A375 cells. Description: Tumor Cell Proliferation Assay (ATP Lite), A375. Format: cell-based. As to conditions: A-375, 96 h, 4 days, ATPlite. Here is the method: as §1, §2
The test system of a further experiment is Murine colon C26 cells. Nature of the experiment: Tumor Cell Proliferation Assay (ATP Lite), C26. Format: cell-based. As to conditions: Mus musculus, 96 h, 4 days, ATPlite. On the procedure:
as §1, §2

Bounds are passed on as bounds.

human MEK1, sequence (Q02750 whole entry S218E/S222E): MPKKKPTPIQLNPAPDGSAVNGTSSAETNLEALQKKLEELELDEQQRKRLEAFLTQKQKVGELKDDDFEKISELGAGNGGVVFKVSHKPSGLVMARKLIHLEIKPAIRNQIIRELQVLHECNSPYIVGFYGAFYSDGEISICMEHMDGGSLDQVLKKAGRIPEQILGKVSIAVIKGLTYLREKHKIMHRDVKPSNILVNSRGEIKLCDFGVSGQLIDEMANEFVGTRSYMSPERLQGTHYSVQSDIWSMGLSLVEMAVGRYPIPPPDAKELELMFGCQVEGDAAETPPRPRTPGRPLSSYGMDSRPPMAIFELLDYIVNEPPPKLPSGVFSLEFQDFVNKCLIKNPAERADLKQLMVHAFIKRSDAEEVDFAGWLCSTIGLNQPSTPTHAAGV

For the compound `CC(Nc1nnc(-c2ccncc2Nc2ccc(I)cc2F)o1)C(=O)O` (stereo not shown) [Example 53, 2-{5-[3-(2-Fluoro-4-iodo-phenylamino)-pyridin-4-yl]-[1,3,4]oxadiazol-2-ylamino}-propionic acid], the IC50 against human MEK1 was not above 3 µM; in experiment [1] it was 3 to 25 µM; in experiment [2], not above 3 µM; with Murine colon C26 cells, not above 3 µM.

`Fc1cc(I)ccc1Nc1cnccc1-c1nnn[nH]1` [Example 62, N-(2-fluoro-4-iodophenyl)-4-(1H-tetrazol-5-yl)pyridin-3-amine]: the IC50 against human MEK1 is not above 3 µM; in experiment [1], more than 25 µM; in experiment [2], more than 25 µM; in the experiment with Murine colon C26 cells, more than 25 µM.

`CCOC(=O)CNC(=O)Nc1nnc(-c2ccncc2Nc2ccc(I)cc2F)o1` [Example 17, (3-{5-[3-(2-Fluoro-4-iodo-phenylamino)-pyridin-4-yl]-[1,3,4]oxadiazol-2-yl}-ureido)-acetic acid ethylester]: the IC50 is not above 3 µM against human MEK1, 3 to 25 µM in experiment [1], 3 to 25 µM in experiment [2] and more than 25 µM in the experiment with Murine colon C26 cells.

Regarding `CCOC(=O)C(C)Nc1nnc(-c2ccncc2Nc2ccc(I)cc2F)o1` (stereo not shown) [Example 52, 2-{5-[3-(2-Fluoro-4-iodo-phenylamino)-pyridin-4-yl]-[1,3,4]oxadiazol-2-ylamino}-propionic acid ethyl ester], the IC50 (at human MEK1; in experiment [1]; in experiment [2]; in the experiment on Murine colon C26 cells) was not above 3 µM in each case.

`Nc1nnc(-c2ccncc2Nc2ccc(Br)cc2Br)o1` [Example 14, [4-(5-Amino-[1,3,4]oxadiazol-2-yl)-pyridin-3-yl]-(2,4-dibromo-phenyl)-amine]: the IC50 (against human MEK1; in experiment [1]; in experiment [2]; with Murine colon C26 cells) was not above 3 µM in each case.

Consider `CCOC(=O)c1nnc(-c2ccncc2Nc2ccc(I)cc2F)[nH]1` [Example 31, 5-[3-(2-Fluoro-4-iodo-phenylamino)-pyridin-4-yl]-4H-[1,2,4]triazole-3-carboxylic acid ethyl ester], for which the IC50 was not above 3 µM against human MEK1, 3 to 25 µM in experiment [1], not above 3 µM in experiment [2] and 3 to 25 µM in the experiment on Murine colon C26 cells.

Consider `Fc1cc(I)ccc1Nc1cnccc1-c1nnc(NCC2CCCO2)s1` (stereo not shown) [Example 50, (2-Fluoro-4-iodo-phenyl)-(4-{5-[(tetrahydro-furan-2-ylmethyl)-amino]-[1,3,4]thiadiazol-2-yl}-pyridin-3-yl)-amine], for which the IC50 (against human MEK1; in experiment [1]; in experiment [2]; in the experiment with Murine colon C26 cells) was not above 3 µM throughout.

For `Fc1cc(I)ccc1Nc1cnccc1-c1nnc(NCCN2CCOCC2)s1` [Example 12, (2-Fluoro-4-iodo-phenyl)-{4-[5-(2-morpholin-4-yl-ethylamino)-[1,3,4]thiadiazol-2-yl]-pyridin-3-yl}-amine], the IC50 (against human MEK1; in experiment [1]; in experiment [2]; in the experiment on Murine colon C26 cells) was not above 3 µM each time.

As for `CNc1nnc(-c2ccncc2Nc2ccc(I)cc2F)s1` [Example 7, (2-Fluoro-4-iodo-phenyl)-[4-(5-methylamino-[1,3,4]thiadiazol-2-yl)-pyridin-3-yl]-amine], the IC50 (against human MEK1; in experiment [1]; in experiment [2]; with Murine colon C26 cells) was not above 3 µM each time.

Take `Fc1cc(I)ccc1Nc1cnccc1-c1c[nH]nn1` [Example 64, N-(2-fluoro-4-iodophenyl)-4-(1H-1,2,3-triazol-4-yl)pyridin-3-amine]: the IC50 (against human MEK1; in experiment [1]; in experiment [2]; with Murine colon C26 cells) was not above 3 µM in each case.

`Fc1cc(I)ccc1Nc1cnccc1C1NNC(=S)N1CCN1CCOCC1` (stereo not shown) [Example 9, 5-[3-(2-Fluoro-4-iodo-phenylamino)-pyridin-4-yl]-4-(2-morpholin-4-yl-ethyl)-[1,2,4]triazolidine-3-thione]: the IC50 is 3 to 25 µM at human MEK1, not above 3 µM in experiment [1], not above 3 µM in experiment [2] and not above 3 µM in the experiment on Murine colon C26 cells.

Consider `Cc1cc(I)ccc1Nc1cnccc1-c1nnc(N)o1` [Example 29, [4-(5-Amino-[1,3,4]oxadiazol-2-yl)-pyridin-3-yl]-(4-iodo-2-methyl-phenyl)-amine], for which the IC50 (against human MEK1; in experiment [1]; in experiment [2]; in the experiment with Murine colon C26 cells) was not above 3 µM throughout.

With `Cn1c(-c2ccncc2Nc2ccc(I)cc2F)n[nH]c1=O` [Example 55, 5-[3-(2-Fluoro-4-iodo-phenylamino)-pyridin-4-yl]-4-methyl-2,4-dihydro-[1,2,4]triazol-3-one], the IC50 (on human MEK1; in experiment [1]; in experiment [2]; in the experiment with Murine colon C26 cells) was not above 3 µM throughout.

Take `O=c1[nH]nc(-c2ccncc2Nc2ccc(I)cc2F)[nH]1` [Example 4, 5-[3-(2-Fluoro-4-iodo-phenylamino)-pyridin-4-yl]-2,4-dihydro-[1,2,4]triazol-3-one]: the IC50 (against human MEK1; in experiment [1]; in experiment [2]; in the experiment with Murine colon C26 cells) was not above 3 µM throughout.

As to `Fc1cc(I)ccc1Nc1cnccc1-c1nnc(NCC2CCCO2)o1` (stereo not shown) [Example 49, (2-Fluoro-4-iodo-phenyl)-(4-{5-[(tetrahydro-furan-2-ylmethyl)-amino]-[1,3,4]oxadiazol-2-yl}-pyridin-3-yl)-amine], the IC50 (at human MEK1; in experiment [1]; in experiment [2]; in the experiment on Murine colon C26 cells) was not above 3 µM throughout.

Turning to `Fc1cc(I)ccc1Nc1cnccc1-c1ncno1` [Example 37, (2-Fluoro-4-iodo-phenyl)-(4-[1,2,4]oxadiazol-5-yl-pyridin-3-yl)-amine], the IC50 (at human MEK1; in experiment [1]; in experiment [2]; with Murine colon C26 cells) was not above 3 µM in each case.

For the compound `Fc1cc(I)ccc1Nc1cnccc1-c1ncon1` [Example 56, (2-Fluoro-4-iodo-phenyl)-(4-[1,2,4]oxadiazol-3-yl-pyridin-3-yl)-amine], the IC50 at human MEK1 was not above 3 µM; in experiment [1], 3 to 25 µM; in experiment [2], 3 to 25 µM; with Murine colon C26 cells, more than 25 µM.

As to `Fc1cc(I)ccc1Nc1cnccc1-c1nnc(N2CCOCC2)o1` [Example 6, (2-Fluoro-4-iodo-phenyl)-[4-(5-morpholin-4-yl-[1,3,4]oxadiazol-2-yl)-pyridin-3-yl]-amine], the IC50 (against human MEK1; in experiment [1]; in experiment [2]; with Murine colon C26 cells) was not above 3 µM throughout.

As to `Fc1cc(I)ccc1Nc1cnccc1-c1n[nH]c(=S)o1` [Example 3, 5-[3-(2-Fluoro-4-iodo-phenylamino)-pyridin-4-yl]-3H-[1,3,4]oxadiazole-2-thione], the IC50 on human MEK1 was not above 3 µM; in experiment [1], not above 3 µM; in experiment [2], not above 3 µM; with Murine colon C26 cells, 3 to 25 µM.

For the compound `CSc1nnc(-c2ccncc2Nc2ccc(I)cc2F)o1` [Example 5, (2-Fluoro-4-iodo-phenyl)-[4-(5-methylsulfanyl-[1,3,4]oxadiazol-2-yl)-pyridin-3-yl]-amine], the IC50 (against human MEK1; in experiment [1]; in experiment [2]; in the experiment with Murine colon C26 cells) was not above 3 µM in each case.

As for `Nc1nnc(-c2ccncc2Nc2ccc(Br)cc2Cl)o1` [Example 35, [4-(5-Amino-[1,3,4]oxadiazol-2-yl)-pyridin-3-yl]-(4-bromo-2-chloro-phenyl)-amine], the IC50 (against human MEK1; in experiment [1]; in experiment [2]; with Murine colon C26 cells) was not above 3 µM throughout.

On to `Nc1nnc(-c2c(Nc3ccc(I)cc3F)cncc2-c2ccccc2Cl)o1` [Example 57, [4-(5-Amino-[1,3,4]oxadiazol-2-yl)-5-(2-chloro-phenyl)-pyridin-3-yl]-(2-fluoro-4-iodo-phenyl)-amine], for which the IC50 (against human MEK1; in experiment [1]; in experiment [2]; in the experiment with Murine colon C26 cells) was not above 3 µM in each case.
